From US10517867B2, “Posaconazole derivative, pharmaceutical composition and use thereof” (priority 2016, dated 2019) come the findings set out here.

Data set [1] is described as follows: In vitro metabolic stability in human plasma. It is filed as in vitro ADME. As to conditions: human, plasma, 37° C., 10 μM compound, read-out: Human plasma T1/2. Here is the method:
(§1) This example detects the metabolic stability of the compounds of the present disclosure in human (rat) plasma and intestinal S9 in vitro. In a human (rat) plasma reaction system, 990 μl of human (rat) plasma was taken and incubated at 37° C. for 5 minutes, and 10 μl of the compound mother liquor was used to initiate the reaction. In the human (rat) intestinal S9 stability experiment, in the order shown in Table 2 below, the samples were added and incubated in a 37° C. water bath to initiate the reaction, each sample performed in triplicates. Respectively, at 1 minute, 2 minutes, 5 minutes, 15 minutes, 30 minutes after the reaction began, 100 μL of each was taken and added to a centrifuge tube containing 400 μL of 0° C. precooled internal standard working solution. The reaction was terminated, vortexed and mixed for 1 minute, centrifuged at 10000×g for 10 minutes in a 4° C. precooled high-speed centrifuge, and the supernatant was detected with HPLC. The test results were used to calculate metabolic half-life using WinNonlin (version 6.2 Pharsight, Mountain View, Calif.) with a non-compartmental model.
(§2) Compound stock solution concentration: 1 mM
(§3) Reaction matrix: human (rat) plasma, intestinal S9 purchased from Research Institute for Liver Diseases (Shanghai) Co., Ltd.

Data set [2] in a line: In vitro metabolic stability in human intestine S9. It is filed as in vitro ADME. The settings on record: human, intestinal S9; 37° C., 10 μM compound, 1 mg/mL S9, NADPH regeneration system; read-out: Human intestine S9 T1/2. As for the experimental part: as §1, §2, §3
The nature of data set [3]: In vitro metabolic stability in rat plasma. In kind it is in vitro ADME. As to conditions: rat, plasma, 37° C., 10 μM compound, read-out: Rat plasma T1/2. As for the experimental part:
as §1, §2, §3

The nature of data set [4]: In vitro metabolic stability in rat intestine S9. In kind it is in vitro ADME. The settings on record: rat, intestinal S9, pH 7.4; 37° C., 10 μM compound, 1 mg/mL S9, NADPH regeneration system; read-out: Rat intestine S9 T1/2. Here is the method:
as §1, §2, §3

Data set [5] is described as follows: Solid stability test (stability chamber, HPLC total impurity). It is filed as physicochemical.
In data set [6] the test system is Candida albicans ATCC10231. Kind of data set: Systemic fungal infection in mice, intragastric administration. It is filed as in vivo, ICR mice. As to conditions: Candida albicans, ATCC10231, po. As for the experimental part:
ICR mice, weighing 18-22 g, male, provided by Hubei Experimental Animal Center.
Prior to the experiment, a small amount of Candida albicans was picked from an SDA medium kept at 4° C. with an inoculation loop and inoculated into 1 ml YPD culture medium, cultured at 30° C. with 200 rpm shaking and activated for 16 hours, so that the fungus was in the late stage of exponential growth. Counted with a hemocytometer and the fungal solution concentration was adjusted to 1×10^3 to 5×10^3 CFU/ml with RPMI1640 medium. Monoclonal Candida albicans on SDA plate was picked up, inoculated into 1 ml YPD (Yeast Extract Peptone Dextrose Medium, the same below) culture medium, cultured at 35° C., 200 rpm for 16 hours until late exponential growth phase. Candida albicans was inoculated into fresh medium for culturing for 6 hours at 1%, centrifuged at 1000×g for 5 minutes, washed with physiological saline three times until the supernatant was colorless, counted with a hemocytometer, and the cell concentration was adjusted to 5×10^6 cells/ml. A tail vein injection of 0.1 ml/10 g caused a systemic fungal infection in mice. […] A total of 7 days of observations were performed. All dead mice were burned with ethanol.

A short description of data set [7]: Determination of solubility in deionized water (HPLC, external standard). The settings on record: 25 °C, water, thermodynamic from solid.
The mark [8] stands for this setting: 24 h, read-out: survival rate of mice, day 1, 20 mg/kg intragastric once daily for 5 days, day 1.
The mark [9] stands for this setting: 48 h, read-out: survival rate of mice, day 2, 20 mg/kg intragastric once daily for 5 days, day 2.
Where [10] appears, read: 72 h, read-out: survival rate of mice, day 3, 20 mg/kg intragastric once daily for 5 days, day 3.
The mark [11] stands for this setting: 96 h, read-out: survival rate of mice, day 4, 20 mg/kg intragastric once daily for 5 days, day 4.
Setting [12] is: 120 h, read-out: survival rate of mice, day 5, 20 mg/kg intragastric once daily for 5 days, day 5.
Where [13] appears, read: 144 h, read-out: survival rate of mice, day 6, 20 mg/kg intragastric once daily for 5 days, day 6.
The mark [14] stands for this setting: 168 h, read-out: survival rate of mice, day 7, 20 mg/kg intragastric once daily for 5 days, day 7.

Each structure is given as a SMILES string. Read-outs that look alike come from different tables or passages of the source.

Take `CC[C@@H]([C@H](C)O)n1ncn(-c2ccc(N3CCN(c4ccc(OC[C@@H]5CO[C@@](Cn6c[n+](C(C)OC(=O)N(C)c7ncccc7COC(=O)[C@@H](N)CCC(N)=O)cn6)(c6ccc(F)cc6F)C5)cc4)CC3)cc2)c1=O` (stereo partly drawn) [ST0022]: the half-life at 10 µM worked out at 1.39 ± 0.52 min in data set [1], 17.7 ± 4.52 min in data set [2], 1.12 ± 0.45 min in data set [3] and 19 ± 5.36 min in data set [4]. Further, the “Total impurity increment in 30 days” value in data set [5] amounted to 0.48%. In addition, the responders at 20 mg/kg amounted to 100% in data set [6] (setting [8]); 100% in data set [6] (setting [9]); 100% in data set [6] (setting [10]); 90% in data set [6] (setting [11]); 80% in data set [6] (setting [12]); 80% in data set [6] (setting [13]). In addition, in data set [6] (setting [14]), the responders at 20 mg/kg came to 70%. Also, the solubility at 30 min in data set [7] was above 50 mg/mL.
Consider `CC[C@@H]([C@H](C)O)n1ncn(-c2ccc(N3CCN(c4ccc(OC[C@@H]5CO[C@@](Cn6c[n+](C(C)OC(=O)N(C)c7ncccc7COC(=O)[C@@H](N)CCCCN)cn6)(c6ccc(F)cc6F)C5)cc4)CC3)cc2)c1=O` (stereo partly drawn) [ST0024], for which the half-life at 10 µM in data set [1] stood at 1.57 ± 0.34 min; in data set [2] it was 12.2 ± 5.9 min; in data set [3] it was 2.51 ± 0.69 min; in data set [4] it was 15.6 ± 5.96 min. The “Total impurity increment in 30 days” value in data set [5] is reported as 0.62%. Further, the responders at 20 mg/kg in data set [6] (setting [8]) came out at 100%; in data set [6] (setting [9]), 90%; in data set [6] (setting [10]) it was 90%; in data set [6] (setting [11]) it was 80%; in data set [6] (setting [12]), 80%; in data set [6] (setting [13]), 70%. Also, the responders at 20 mg/kg in data set [6] (setting [14]) was determined as 70%. In data set [7], this compound came in with a solubility at 30 min above 50 mg/mL.
`CC[C@@H]([C@H](C)O)n1ncn(-c2ccc(N3CCN(c4ccc(OC[C@@H]5CO[C@@](Cn6c[n+](C(C)OC(=O)N(C)c7ncccc7COC(=O)[C@@H](N)[C@@H](C)O)cn6)(c6ccc(F)cc6F)C5)cc4)CC3)cc2)c1=O` (stereo partly drawn) [ST0026]: the half-life at 10 µM in data set [1] is 1.03 ± 0.09 min; in data set [2] it was 16.4 ± 7.54 min; in data set [3], 2.69 ± 1.21 min; in data set [4], 19 ± 5.96 min. The “Total impurity increment in 30 days” value in data set [5] is 0.46%. Moreover, the responders at 20 mg/kg stood at 100% in data set [6] (setting [8]); 100% in data set [6] (setting [9]); 90% in data set [6] (setting [10]); 80% in data set [6] (setting [11]); 70% in data set [6] (setting [12]); 70% in data set [6] (setting [13]). The responders at 20 mg/kg in data set [6] (setting [14]) was found to be 70%. In addition, in data set [7], the solubility at 30 min is above 50 mg/mL.
For the compound `CC[C@@H]([C@H](C)O)n1ncn(-c2ccc(N3CCN(c4ccc(OC[C@@H]5CO[C@@](Cn6c[n+](C(C)OC(=O)N(C)c7ncccc7COC(=O)[C@@H](N)Cc7ccc(O)cc7)cn6)(c6ccc(F)cc6F)C5)cc4)CC3)cc2)c1=O` (stereo partly drawn) [ST0027], the half-life at 10 µM in data set [1] was 20.4 ± 3.65 min; in data set [2] it was 45.9 ± 8.12 min; in data set [3] it was 15.9 ± 7.85 min; in data set [4], 39.5 ± 6.69 min. Besides, the “Total impurity increment in 30 days” value in data set [5] stood at 0.75%. In addition, the solubility at 30 min in data set [7] is above 50 mg/mL.
On to `CC[C@@H]([C@H](C)O)n1ncn(-c2ccc(N3CCN(c4ccc(OC[C@@H]5CO[C@@](Cn6c[n+](C(C)OC(=O)N(C)c7ncccc7COC(=O)CN(C)C)cn6)(c6ccc(F)cc6F)C5)cc4)CC3)cc2)c1=O` (stereo partly drawn) [ST0045], for which the half-life at 10 µM in data set [1] came out at 15.2 ± 3.99 min; in data set [2], 33.2 ± 4.23 min; in data set [3], 11.9 ± 2.96 min; in data set [4] it was 26 ± 5.69 min. Also, the “Total impurity increment in 30 days” value in data set [5] was 1.68%. Further, the solubility at 30 min in data set [7] was above 50 mg/mL.
For `CC[C@@H]([C@H](C)OC(=O)OC(C)OC(=O)CNC)n1ncn(-c2ccc(N3CCN(c4ccc(OC[C@@H]5CO[C@@](Cn6cncn6)(c6ccc(F)cc6F)C5)cc4)CC3)cc2)c1=O.Cl` (stereo partly drawn) [ST0053], the half-life at 10 µM in data set [1] was found to be 19.9 ± 3.01 min; in data set [2], 50.2 ± 5.15 min; in data set [3] it was 21.2 ± 4.52 min; in data set [4], 48.2 ± 6.85 min. The “Total impurity increment in 30 days” value in data set [5] (solid, packaged, 25° C.±2° C., relative humidity 60%±2%) worked out at 0.85%. Besides, the responders at 20 mg/kg was 90% in data set [6] (24 h, 20 mg/kg intragastric once daily for 5 days, day 1, read-out: survival rate of mice, day 1); 80% in data set [6] (48 h, 20 mg/kg intragastric once daily for 5 days, day 2, read-out: survival rate of mice, day 2); 70% in data set [6] (72 h, 20 mg/kg intragastric once daily for 5 days, day 3, read-out: survival rate of mice, day 3); 60% in data set [6] (96 h, 20 mg/kg intragastric once daily for 5 days, day 4, read-out: survival rate of mice, day 4); 60% in data set [6] (120 h, 20 mg/kg intragastric once daily for 5 days, day 5, read-out: survival rate of mice, day 5); 60% in data set [6] (144 h, 20 mg/kg intragastric once daily for 5 days, day 6, read-out: survival rate of mice, day 6). Also, the responders at 20 mg/kg in data set [6] (168 h, 20 mg/kg intragastric once daily for 5 days, day 7, read-out: survival rate of mice, day 7) came to 60%.
